For orientation: Kd means the concentration at which binding is half-saturated.

Consider 7 molecules from ChEMBL document CHEMBL4396950, “A rational search for discovering potential neutraligands of human complement fragment 5a (hC5a)” (Bioorg Med Chem, 2019).

Calls of active or inactive are those of the source. The rule behind the calls is not given here.

Assay [1] addresses T1, Complement C5 (Homo sapiens, UniProt P01031). Put plainly: Binding affinity to human C5a assessed as Potassium iodide-induced quenching by measuring Stern-Volmer quenching constant at 1 uM by fluorescence analysis.
Assay [2] deals with T1, Complement C5. Put plainly: Induction of recombinant human C5a destabilization assessed as intrinsically disordered structure at 2 to 8 M by circular dichroism analysis.
Assay [3] deals with T1, Complement C5. Briefly: Induction of recombinant human C5a destabilization assessed as intrinsically disordered structure at 8 M incubated for 1 hr by fluorescence analysis.
The target in assay [4] is T1, Complement C5. Put plainly: Induction of recombinant human C5a destabilization assessed as intrinsically disordered structure at 8 M incubated for overnight by fluorescence analysis.
For assay [5], the target named is T1, Complement C5. Put plainly: Binding affinity to human C5a assessed as dissociation constant after 1 hr by circular dichroism analysis. (In general: CD spectra are sensitive to the conformation of chiral molecules.)
Assay [6] addresses T1, Complement C5. Put plainly: Binding affinity to recombinant human C5a assessed as conformational change at 1 to 100 uM incubated for 1 hr at 4degC by circular dichroism analysis.
The target of assay [7] is T1, Complement C5. Put plainly: Binding affinity to recombinant human C5a assessed as conformational change =< 1 uM at 4 degC incubated for 1 hr by circular dichroism analysis.
The target in assay [8] is T1, Complement C5. Put plainly: Binding affinity to recombinant human C5a assessed as loss of super secondary structure at > 10 uM incubated for 1 hr at 4 degC by circular dichroism analysis.
Assay [9] concerns the target T1, Complement C5. Put plainly: Binding affinity to human C5a assessed as loss of secondary structure by measuring red shift in absorption maxima at 10 to 100 uM by fluorescence analysis.
Assay [10] addresses T1, Complement C5. Put plainly: Induction of human recombinant C5a unfolding by circular dichroism analysis.
Assay [11] has as its target T1, Complement C5. Briefly: Induction of human recombinant C5a destabilization assessed as protein structure helicity up to 10 uM by circular dichroism analysis.
The target in assay [12] is T1, Complement C5. Put plainly: Binding affinity to human C5a assessed as induction of conformational change with no shift in absorption maxima at 1 uM by fluorescence analysis.
The target in assay [13] is T1, Complement C5. Briefly: Induction of recombinant human C5a destabilization assessed as intrinsically disordered structure at 2 to 4 M by circular dichroism analysis.
Assay [14] has as its target T1, Complement C5. Put plainly: Induction of recombinant human C5a destabilization assessed as protein unfolding at 6 M by circular dichroism analysis.
Assay [15] concerns the target T1, Complement C5. Put plainly: Induction of recombinant human C5a destabilization assessed as protein unfolding at 6 M after 1 hr by fluorescence analysis.
Assay [16] has as its target T1, Complement C5. Put plainly: Induction of recombinant human C5a destabilization assessed as protein unfolding at 6 M incubated for overnight by fluorescence analysis.

As to `CC(=O)N[C@@H](Cc1c[nH]c2ccccc12)C(N)=O`, on Complement C5 [1], the KSV is 12.4 M⁻¹.
Turning to `NC(N)=O`, the outcome at Complement C5 [2], at Complement C5 [3] and on Complement C5 [4] was Active.
With `O=C(c1ccc(OCCN2CCCCC2)cc1)c1c(-c2ccc(O)cc2)sc2cc(O)ccc12` [RALOXIFENE], on Complement C5 [5], the Kd was 0.71 µM. For the same molecule, on Complement C5 [1], the KSV is 1.1 M⁻¹.
Turning to `CC1=C(CC(=O)O)c2cc(F)ccc2/C1=C\c1ccc([S+](C)[O-])cc1` (stereo not drawn), the outcome on Complement C5 [6], on Complement C5 [7], at Complement C5 [8], on Complement C5 [9], at Complement C5 [10] and on Complement C5 [12] was Active. For the same molecule, the Kd at Complement C5 [5] came to 0.57 µM. Also, the KSV on Complement C5 [1] came out at 2.5 M⁻¹. Moreover, on Complement C5 [11], the Activity was 5%.
As for `CC(C(=O)O)c1ccc2c(c1)[nH]c1ccc(Cl)cc12` (stereo not drawn) [CARPROFEN], the Kd at Complement C5 [5] is 0.58 µM. Besides, the KSV at Complement C5 [1] stood at 2.6 M⁻¹.
Take `O=C(O)CCc1nc(-c2ccccc2)c(-c2ccccc2)o1` [OXAPROZIN]: the Kd on Complement C5 [5] is 0.64 µM. In addition, on Complement C5 [1], the KSV amounted to 4.3 M⁻¹.
For `N=C(N)N`, the result at Complement C5 [13], at Complement C5 [14], at Complement C5 [15] and at Complement C5 [16] was Active.
